{"source": "patent US20140357706A1", "about": "“Stearate Compounds” (THE UAB RESEARCH FOUNDATION, priority 2011, published 2014)", "key": {"[1]": {"tested_on": "MDA-MB-435 human breast cancer cells", "experiment": "MDA-MB-435 lung metastasis model, experiment 2 (diet started with chemotherapy after surgery)", "assay_type": "in vivo, mice", "experimental": "3-4 week old female athymic mice were purchased from Harlan Sprague Dawley, Inc. (Indianapolis, Ind.) and were maintained in microisolater cages in pathogen-free facilities. […] The diets were prepared by Harlan-Teklad (Madison, Wis.). The animals were fed ad libitum and the amount of food consumed was recorded. Mice were anesthetized with 3% isoflurane in 2.5% O2 and weighed weekly. All in vivo procedures were approved by the Institutional Animal Care and Use Committee (IACUC), University of Alabama at Birmingham (UAB).\nMDA-MB-435 human breast cancer cells (obtained from Dr. Dan Welch; UAB) were grown and maintained in DMEM:F12 supplemented with 5% FBS, 2 mM glutamine, 1 mM sodium pyruvate, 0.2× non-essential amino acids and 1% penicillin/streptomycin (5% CO2). Cells were grown to 80-90% confluence prior to preparation for injection. To detach cells from the plates, cells were washed with PBS and then treated with 3 mM versene. […]\nLungs were placed under the dissecting microscope (Fisher Scientific, Hanover Park, Ill.) for measurement of metastatic tumor size. Tumor size is expressed as an average of the longest and shortest diameter. The tumors were split into three groups according to their sizes (<0.1 cm, small tumor; 0.1-0.2 cm, medium tumor; >0.2 cm, large tumor), and the number of tumors per mouse was counted separately."}, "lung metastatic tumors": {"tested_on": "lung metastatic tumors", "experiment": "Immunohistochemistry of lung metastatic tumors (CD31, Ki67, caspase-3), experiment 2", "assay_type": "in vivo, mice", "experimental": "Paraffin sections were prepared as described previously (21). 5 μm thick sections were cut from the formalin fixed, paraffin embedded tissue blocks and floated onto charged glass slides (Super-Frost Plus, Fisher Scientific, Pittsburgh, Pa.) and dried overnight at 60° C. A hemotoxylin and eosin stained section was obtained from each tissue block. All sections for immunohistochemistry were deparaffinized and hydrated using graded concentrations of ethanol to deionized water.\nCD31 immunostaining was done as described previously^(21). Briefly, the tissue sections were subjected to pretreatment with 0.5 M tris buffer (pH 10). All sections were washed gently in deionized water, then transferred in to 0.05 M Tris-based solution in 0.15 M NaCl with 0.1% v/v Triton-X-100, pH 7.6 (TBST). Endogenous peroxidase was blocked with 3% hydrogen peroxide for 10 min. To reduce further nonspecific background staining, slides were incubated with avidin (Jackson ImmunoResearch, West Grove, Pa.) and biotin blocking solutions (Sigma, to St. Louis, Mo.) for 15 min each, and 3% normal goat serum (Sigma, St. Louis, Mo.) for 20 min. All slides were then incubated at 4° C. overnight with rabbit polyclonal antibody against CD31 (1:200 dilution) (Abeam, Cambridge, Mass.). […]\nBioquant® Image Analysis software (Rtm Biometrics, Nashville, Tenn.) was used to evaluate the immunostaining. […] The numbers of positive and negative cells in these hot spots were then counted and averaged at 5 magnification X40. The percentage of cells stained with Ki67 or caspase-3 was subsequently calculated for comparison. For CD31 immunostaining, the MVD was measured based on Weidner's method (37). […] The number of microvessels in these hot spots was counted at magnification X40, and the density was then calculated for comparison. Each positive endothelial cell cluster of immunoreactivity was counted as an individual vessel in addition to the morphologically identifiable vessels with a lumen."}}, "data": [{"compound": "CC(=O)O[C@H]1C(=O)[C@@]2(C)[C@H]([C@H](OC(=O)c3ccccc3)[C@]3(O)C[C@H](OC(=O)[C@H](O)[C@@H](NC(=O)c4ccccc4)c4ccccc4)C(C)=C1C3(C)C)[C@]1(OC(C)=O)CO[C@@H]1C[C@@H]2O", "note": "[paclitaxel]", "values": [{"measurement": "Incidence of lung metastases", "setting": "[1]; PTX vs same diet without PTX, p<0.01, about 20 mg/kg i.p.", "result": "significantly lower"}, {"measurement": "Number of lung metastases", "setting": "[1]; two-way ANOVA, PTX VS. no PTX, diet VS. control diet", "result": "significantly reduced"}, {"measurement": "Caspase-3 positive cells", "setting": "lung metastatic tumors; compared to control diet group", "result": "significantly increased"}, {"measurement": "Percentage of Ki67 positive cells (proliferation)", "setting": "lung metastatic tumors; two-way ANOVA", "result": "significantly inhibited"}, {"measurement": "Microvessel density (MVD), CD31", "setting": "lung metastatic tumors; two-way ANOVA, PTX VS. no PTX, diet VS. control diet group", "result": "decreased the MVD significantly"}]}]}
